Source: patent US20060189551A1 (priority 2004, published 2006)

What was measured:
[1] = target: FKBP12-aspartokinase interaction (Saccharomyces cerevisiae, UniProt P20081)
Method: (§1) Transformants from yeast two-hybrid host strain PJ69-4A coexpressing Ga14 DNA-binding domain (BD) fusion proteins from plasmid pGBT9-Fpr1 (BD-Fpr1), pGBT9-AK (BD-AK), or pGBT9-AK(E282D) (BD-AD^E282D) and Ga14 activation domain (AD) fusion proteins from plasmids pGAD424-AK (AD-AK) or pGAD424-AK(E282D) (AD-AK^E212D) were grown in SD medium supplemented with uracil, adenine, methionine, and histidine (YNB) or in the same medium plus 1 g of L-threonine/liter (YNB+Thr) or 10 μg of FK506/mL (YNB+FK506), and induction of the lacZ reporter gene was quantified by assaying beta-galactosidase activity. PJ69-4A cotransformed with vectors pGBT9 (BD) and pGAD424 (AD) was assayed as a control.
(§2) Yeast two-hybrid host strain PJ69-4A was cotransformed with plasmids expressing the Ga14 DNA binding-domain (BD) and Ga14 activation domain (AD) fusion proteins. The transformants were grown in Siluid SD medium supplemented with adenine, uracil, methionine, and histidine or in the same medium with the 1 g of L-threonine/liter or with 10 mg of FK506/liter, and induction of the lacZ reporter gene was measured as beta-galactosidase activity as disclosed in Cardenas et al., EMBO J., 14, 5892-5907. […]

aspartokinase [2] = target: aspartokinase (Saccharomyces cerevisiae, UniProt P10869, E282D); details: 5 mM threonine
Method: (§3) Aspartokinase (AK) activity in partially purified extracts obtained from the strains described in FIG. 8A was assayed in the presence or absence of threonine (1 or 5 mM).
(§4) AK activity was measured with an enzymatic assay that couples ADP formation with NADH depletion, using pyruvate kinase/lactate dehydrogenase system.
(§5) Aspartokinase activity was assayed in the presence and absence of threonine from wild-type and fpr1, hom6 or HOM3-R7 feedback-resistant mutant cells.

aspartokinase [3] = target: T1, aspartokinase (Saccharomyces cerevisiae, UniProt P10869)
T1 sequence (P10869 1-527): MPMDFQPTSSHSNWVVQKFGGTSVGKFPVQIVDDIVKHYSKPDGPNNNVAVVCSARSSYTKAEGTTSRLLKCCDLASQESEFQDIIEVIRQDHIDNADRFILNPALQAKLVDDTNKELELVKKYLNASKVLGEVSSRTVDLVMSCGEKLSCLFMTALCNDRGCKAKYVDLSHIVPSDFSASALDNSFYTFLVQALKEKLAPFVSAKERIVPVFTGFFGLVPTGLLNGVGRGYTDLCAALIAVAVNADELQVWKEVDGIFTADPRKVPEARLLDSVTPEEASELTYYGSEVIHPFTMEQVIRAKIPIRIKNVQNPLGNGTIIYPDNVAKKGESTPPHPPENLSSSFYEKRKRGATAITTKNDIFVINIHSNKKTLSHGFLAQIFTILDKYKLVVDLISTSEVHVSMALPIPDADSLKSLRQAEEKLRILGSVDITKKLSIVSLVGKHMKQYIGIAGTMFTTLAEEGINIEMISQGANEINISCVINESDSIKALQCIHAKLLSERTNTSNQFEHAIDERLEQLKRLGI
Method: as §3, §4, §5

[4] = target: FKBP12-aspartokinase interaction (Saccharomyces cerevisiae, UniProt P10869); details: 30 mM L-threonine added to binding reaction
Method: (§6) FKBP12-aspartokinase (AK) and AK-AK interaction by in vitro affinity chromatography. Crude protein extracts obtained from a wild-type strain (BY4741) or from a strain expressing the HOM3-R7 mutant allele (MAY315) were incubated with His6-tagged yeast FKPB12 coupled to agarose beads in the presence or absence of 30 mM L-threonine. Bound proteins were eluted and analyzed by Western blotting with antibodies against yeast aspartokinase. Binding reactions wit agarose beads alone were included as controls.

[5] = target: FKBP12-aspartokinase interaction (Saccharomyces cerevisiae, UniProt P10869, E282D); details: 30 mM L-threonine added to binding reaction
Method: as §6

[6] = tested on: FKBP12-aspartokinase interaction; details: 1 g of L-threonine/liter in culture medium (YNB+Thr)
Method: as §1, §2

Sequence of aspartokinase (Saccharomyces cerevisiae, UniProt P10869, E282D) (P10869 whole entry E282D): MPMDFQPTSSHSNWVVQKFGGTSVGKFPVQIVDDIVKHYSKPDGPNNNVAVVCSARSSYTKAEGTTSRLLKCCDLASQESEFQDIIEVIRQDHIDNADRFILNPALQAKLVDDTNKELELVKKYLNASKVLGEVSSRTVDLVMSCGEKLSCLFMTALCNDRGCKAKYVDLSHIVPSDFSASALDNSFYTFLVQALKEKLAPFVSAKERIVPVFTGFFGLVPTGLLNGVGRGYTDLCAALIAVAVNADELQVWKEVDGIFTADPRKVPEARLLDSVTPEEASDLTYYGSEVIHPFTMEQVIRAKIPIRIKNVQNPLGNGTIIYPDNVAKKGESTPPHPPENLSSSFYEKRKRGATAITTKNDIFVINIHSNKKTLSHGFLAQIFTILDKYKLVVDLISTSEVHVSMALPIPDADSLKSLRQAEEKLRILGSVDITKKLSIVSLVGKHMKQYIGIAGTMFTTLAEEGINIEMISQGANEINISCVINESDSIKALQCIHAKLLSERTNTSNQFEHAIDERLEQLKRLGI
Sequence of FKBP12-aspartokinase interaction (Saccharomyces cerevisiae, UniProt P10869, E282D) (P20081 2-114): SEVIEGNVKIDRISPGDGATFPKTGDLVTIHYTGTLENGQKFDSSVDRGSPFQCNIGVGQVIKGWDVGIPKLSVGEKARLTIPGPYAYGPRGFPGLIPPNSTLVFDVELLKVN
Sequence of FKBP12-aspartokinase interaction (Saccharomyces cerevisiae, UniProt P10869, E282D) (P10869 whole entry E282D): as the sequence (P10869 whole entry E282D) above
Sequence of FKBP12-aspartokinase interaction (Saccharomyces cerevisiae, UniProt P10869) (P20081 2-114, one chain of several): as the sequence (P20081 2-114) above
Sequence of FKBP12-aspartokinase interaction (Saccharomyces cerevisiae, UniProt P20081) (P20081 2-114): as above

Row | SMILES | FKBP12-aspartokinase binding in the presence of FK506 [1] | activity of feedback-resistant aspartokinase (HOM3-R7) (aspartokinase [2]) | aspartokinase activity from wild-type and fpr1Δ strains (aspartokinase [3]; 1 mM threonine) | aspartokinase activity (feedback inhibition) (aspartokinase [3]; 5 mM threonine) | aspartokinase activity of the hom6Δ mutant (aspartokinase [3]; threonine 1 or 5 mM) | FKBP12 interaction with wild-type aspartokinase [4] | FKBP12 interaction with feedback resistant aspartokinase (HOM3-R7) [5] | FKBP12-AK and FKBP12-AK^E282D binding [6]
1 | C=CC[C@@H]1/C=C(\C)C[C@H](C)C[C@H](OC)[C@H]2O[C@@](O)(C(=O)C(=O)N3CCCC[C@H]3C(=O)O[C@H](/C(C)=C/[C@@H]3CC[C@@H](O)[C@H](OC)C3)[C@H](C)[C@@H](O)CC1=O)[C@H](C)C[C@@H]2OC (relative stereo) [FK506, [3S-[3R*[E(1S*,3S*,4S*)],4S*,5R*,8S*,9E,12R*,14R*,15S*,16R*,18S*,19S*,26aR*]]-5,6,8,11,12,13,14,15,16,17,18,19,24,25,26,26a-hexadecahydro-5,19-dihydroxy-3-[2-(4-hydroxy-3-methoxycyclohexyl)-1-methylethenyl]-14,16-dimethoxy-4,10,12,18-tetramethyl-8-(2-propenyl)-15,19-epoxy-3H-pyrido[2,1-c][1,4]oxaazacyclotricosine-1,7,20,21(4H,23H)-tetrone, reference compound] | nearly abolished |  |  |  |  |  |  | 
2 | C[C@@H](O)[C@H](N)C(=O)O [threonine, L-threonine] |  | no inhibition | inhibited to comparable levels | completely feedback inhibited | inhibited | increased | not with feedback resistant aspartokinase | increased
